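Five compound concentrations were applied to cells in 96-well plates for 48 hours; endpoints were derived by simple linear interpolation of the resulting dose-response curve. TGI: concentration producing complete growth inhibition.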
Legend:
Assay in all cases: NCI anticancer screen, dose series, 48 h
CCRF-CEM leukemia = test system: CCRF-CEM leukemia
SK-MEL-28 melanoma = test system: SK-MEL-28 melanoma
A498 renal = test system: A498 renal
786-0 renal = test system: 786-0 renal
RPMI-8226 leukemia = test system: RPMI-8226 leukemia
OVCAR-4 ovarian = test system: OVCAR-4 ovarian
SK-MEL-2 melanoma = test system: SK-MEL-2 melanoma
A549 NSCLC = test system: A549 NSCLC
BT-549 breast = test system: BT-549 breast
M14 melanoma = test system: M14 melanoma
NCI-H23 lung = test system: NCI-H23 lung
OVCAR-5 ovarian = test system: OVCAR-5 ovarian
SK-MEL-5 melanoma = test system: SK-MEL-5 melanoma
UACC-257 melanoma = test system: UACC-257 melanoma
PC-3 prostate = test system: PC-3 prostate
OVCAR-8 ovarian = test system: OVCAR-8 ovarian
IGROV1 ovarian = test system: IGROV1 ovarian
MALME-3M melanoma = test system: MALME-3M melanoma
TK-10 renal = test system: TK-10 renal
MDA-MB-435 = test system: MDA-MB-435
ACHN renal = test system: ACHN renal
NCI-H522 lung = test system: NCI-H522 lung
MDA-MB-231 breast = test system: MDA-MB-231 breast
SNB-19 CNS = test system: SNB-19 CNS
HCC-2998 colon = test system: HCC-2998 colon
SF-295 CNS = test system: SF-295 CNS
HOP-62 NSCLC = test system: HOP-62 NSCLC
HOP-92 NSCLC = test system: HOP-92 NSCLC
T-47D breast = test system: T-47D breast
HS 578T breast = test system: HS 578T breast
DU-145 prostate = test system: DU-145 prostate
MOLT-4 leukemia = test system: MOLT-4 leukemia
EKVX NSCLC = test system: EKVX NSCLC
COLO 205 colon = test system: COLO 205 colon
HCT-15 colon = test system: HCT-15 colon
CAKI-1 renal = test system: CAKI-1 renal
UO-31 renal = test system: UO-31 renal
SF-268 CNS = test system: SF-268 CNS
MDA-N = test system: MDA-N
SN12C renal = test system: SN12C renal
HCT-116 colon = test system: HCT-116 colon
SK-OV-3 ovarian = test system: SK-OV-3 ovarian
NCI/ADR-RES ovarian = test system: NCI/ADR-RES ovarian
HT29 colon = test system: HT29 colon
RXF 393 renal = test system: RXF 393 renal
KM12 colon = test system: KM12 colon
SF-539 CNS = test system: SF-539 CNS
U251 CNS = test system: U251 CNS
UACC-62 melanoma = test system: UACC-62 melanoma
NCI-H226 lung = test system: NCI-H226 lung
OVCAR-3 ovarian = test system: OVCAR-3 ovarian
MCF7 breast = test system: MCF7 breast
SW-620 colon = test system: SW-620 colon

Nc1nc(N)c2ncn(-c3ccc(Cl)c(Cl)c3)c2n1
TGI (CCRF-CEM leukemia): 28.8 µM
TGI (SK-MEL-28 melanoma): > 100 µM
TGI (A498 renal): 32.4 µM
TGI (786-0 renal): 27.5 µM
TGI (RPMI-8226 leukemia): 75.2 µM
TGI (OVCAR-4 ovarian): > 100 µM
TGI (SK-MEL-2 melanoma): 28 µM
TGI (A549 NSCLC): > 100 µM
TGI (BT-549 breast): 72.6 µM
TGI (M14 melanoma): > 100 µM
TGI (NCI-H23 lung): 40.4 µM
TGI (OVCAR-5 ovarian): > 100 µM
TGI (SK-MEL-5 melanoma): > 100 µM
TGI (UACC-257 melanoma): 57.9 µM
TGI (PC-3 prostate): 82.1 µM
TGI (OVCAR-8 ovarian): > 100 µM
TGI (IGROV1 ovarian): 64.6 µM
TGI (MALME-3M melanoma): 49.2 µM
TGI (TK-10 renal): 70.6 µM
TGI (MDA-MB-435): > 100 µM
TGI (ACHN renal): > 100 µM
TGI (NCI-H522 lung): > 100 µM
TGI (MDA-MB-231 breast): 77.7 µM
TGI (SNB-19 CNS): > 100 µM
TGI (HCC-2998 colon): > 100 µM
TGI (SF-295 CNS): 69.6 µM
TGI (HOP-62 NSCLC): 87.7 µM
TGI (HOP-92 NSCLC): > 100 µM
TGI (T-47D breast): > 100 µM
TGI (HS 578T breast): 42.4 µM
TGI (DU-145 prostate): > 100 µM
TGI (MOLT-4 leukemia): 42.5 µM
TGI (EKVX NSCLC): > 100 µM
TGI (COLO 205 colon): 28.7 µM
TGI (HCT-15 colon): > 100 µM
TGI (CAKI-1 renal): > 100 µM
TGI (UO-31 renal): 59.2 µM
TGI (SF-268 CNS): > 100 µM
TGI (MDA-N): > 100 µM
TGI (SN12C renal): 61.7 µM
TGI (HCT-116 colon): 40.3 µM
TGI (SK-OV-3 ovarian): > 100 µM
TGI (NCI/ADR-RES ovarian): > 100 µM
TGI (HT29 colon): 58.1 µM
TGI (RXF 393 renal): 50.8 µM
TGI (KM12 colon): 97.5 µM
TGI (SF-539 CNS): 67.6 µM
TGI (U251 CNS): > 100 µM
TGI (UACC-62 melanoma): 43 µM
TGI (NCI-H226 lung): > 100 µM
TGI (OVCAR-3 ovarian): 44.1 µM
TGI (MCF7 breast): > 100 µM
TGI (SW-620 colon): > 100 µM

From PubChem BioAssay (NCI)
